Measured values taken from patent US9067894B1, “Compound, composition, and method of activating GIRK potassium channel and use of same for treating conditions of interest” (Vanderbilt University, priority 2013, dated 2015).

What was measured:
[1] = target: T1, Muscarinic M3 (Homo sapiens, UniProt P20309); test: Radioligand displacement (Ricerca); assay type: binding
T1 construct: Ricerca (contract laboratory that ran the panel)

[2] = target: T2, Muscarinic M2 (Homo sapiens, UniProt P08172); test: Radioligand displacement (Ricerca); assay type: binding
T2 construct: Ricerca (contract laboratory that ran the panel)

[3] = tested on: Imidazoline, I2; test: Radioligand displacement (Ricerca); assay type: binding, rat; conditions: 10 μM
[4] = target: T3, PAF (Homo sapiens, UniProt P25105); test: Radioligand displacement (Ricerca); assay type: binding
T3 construct: Ricerca (contract laboratory that ran the panel)

[5] = target: T4, GIRK1/2 (Homo sapiens, UniProt P48051+P48549); test: Thallium flux, pertussis toxin-treated cells co-expressing mGlu8 and GIRK1/2; assay type: cell-based; set-up: host or cells: HEK-293; conditions: 600 ng/ml pertussis toxin; VU0456810 10 μM, glutamate 100 μM
T4 sequence (P48549 1-501): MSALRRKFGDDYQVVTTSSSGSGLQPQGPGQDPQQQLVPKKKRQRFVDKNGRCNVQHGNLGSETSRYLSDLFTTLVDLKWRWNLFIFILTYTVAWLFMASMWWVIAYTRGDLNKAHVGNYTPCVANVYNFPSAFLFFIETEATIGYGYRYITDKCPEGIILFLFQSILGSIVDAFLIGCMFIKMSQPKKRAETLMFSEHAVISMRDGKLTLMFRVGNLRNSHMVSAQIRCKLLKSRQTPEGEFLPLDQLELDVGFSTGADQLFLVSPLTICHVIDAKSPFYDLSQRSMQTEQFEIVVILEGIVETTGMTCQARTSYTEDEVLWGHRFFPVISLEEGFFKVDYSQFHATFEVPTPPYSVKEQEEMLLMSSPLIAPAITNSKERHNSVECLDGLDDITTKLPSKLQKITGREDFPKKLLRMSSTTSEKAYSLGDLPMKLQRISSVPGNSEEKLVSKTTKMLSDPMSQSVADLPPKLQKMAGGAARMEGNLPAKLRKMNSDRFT
T4 sequence (P48051 1-423): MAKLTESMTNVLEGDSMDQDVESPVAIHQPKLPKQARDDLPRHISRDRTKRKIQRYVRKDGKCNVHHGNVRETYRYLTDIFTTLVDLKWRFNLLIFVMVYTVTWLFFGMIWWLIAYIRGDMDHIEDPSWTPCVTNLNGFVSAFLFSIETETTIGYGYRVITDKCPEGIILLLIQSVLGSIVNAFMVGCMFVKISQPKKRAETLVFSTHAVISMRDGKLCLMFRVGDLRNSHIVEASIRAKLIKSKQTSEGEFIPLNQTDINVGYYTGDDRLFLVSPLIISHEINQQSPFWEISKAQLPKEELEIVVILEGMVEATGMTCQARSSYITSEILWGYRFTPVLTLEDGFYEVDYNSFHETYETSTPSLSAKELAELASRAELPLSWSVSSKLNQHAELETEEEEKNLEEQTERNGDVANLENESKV
From the text: Cell Line Construction and Cell Culture. HEK-293 cells co-expressing human GIRK1/2 and rat mGlu8 were generated as previously described (Niswender et al., 2008). A HEK-293 cell line (ATCC, Manassas, Va.) expressing human GIRK1 and human GIRK2 was constructed by transfecting HEK-293 cells with GIRK1 and GIRK2 (Origene, Rockville, Md.) cloned into the pBudCE4.1 vector (Life Technologies, Carlsbad, Calif.) using FuGene 6 (Promega, Madison, Wis.) transfection reagent. Unless otherwise noted, other ion channel-expressing cells were prepared by transfecting HEK-293 cells with individual or combinations of subunits: GIRK1, pCMV6-A-BSD; GIRK2, pCMV6-A-puro; GIRK3, pCMV6-A-hygro; GIRK4, pCMV6-A-AC; Kv7.4, pIRESneo3. The Kir2.1 and hERG-expressing cell lines were made by transfecting T-REx-293 cells (Life Technologies, Carlsbad, Calif.) with Kir2.1 and Kv11.1, respectively, cloned into pcDNA5TO. Monoclonal cell lines were produced by limiting-dilution cloning of antibiotic-resistant cells and functional selection using the thallium flux assay described below. Unless otherwise noted, cells were maintained in Minimal Essential Medium, Alpha Medium (Mediatech, Manassas, Va.) supplemented with 10% fetal bovine serum (Sigma-Aldrich, Saint Louis, Mo.) and GlutaGro (Mediatech, Manassas, Va.), referred to henceforth as cell culture medium. […]

T1 sequence (P20309 whole entry): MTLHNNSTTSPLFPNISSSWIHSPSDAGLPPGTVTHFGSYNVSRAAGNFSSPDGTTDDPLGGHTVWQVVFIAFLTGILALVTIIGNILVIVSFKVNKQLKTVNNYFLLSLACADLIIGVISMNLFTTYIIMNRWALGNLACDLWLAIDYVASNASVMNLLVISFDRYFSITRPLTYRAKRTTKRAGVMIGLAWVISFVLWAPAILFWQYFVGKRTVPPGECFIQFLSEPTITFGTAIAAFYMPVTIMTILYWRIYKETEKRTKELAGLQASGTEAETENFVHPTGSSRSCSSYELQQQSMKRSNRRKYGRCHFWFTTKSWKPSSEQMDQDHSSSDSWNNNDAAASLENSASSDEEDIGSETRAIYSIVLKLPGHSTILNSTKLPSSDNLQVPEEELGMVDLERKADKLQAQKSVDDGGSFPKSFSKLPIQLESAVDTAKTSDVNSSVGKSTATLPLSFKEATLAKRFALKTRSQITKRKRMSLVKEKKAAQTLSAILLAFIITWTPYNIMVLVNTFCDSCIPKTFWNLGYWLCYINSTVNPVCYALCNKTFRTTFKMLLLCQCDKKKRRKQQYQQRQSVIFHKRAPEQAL
T2 sequence (P08172 whole entry): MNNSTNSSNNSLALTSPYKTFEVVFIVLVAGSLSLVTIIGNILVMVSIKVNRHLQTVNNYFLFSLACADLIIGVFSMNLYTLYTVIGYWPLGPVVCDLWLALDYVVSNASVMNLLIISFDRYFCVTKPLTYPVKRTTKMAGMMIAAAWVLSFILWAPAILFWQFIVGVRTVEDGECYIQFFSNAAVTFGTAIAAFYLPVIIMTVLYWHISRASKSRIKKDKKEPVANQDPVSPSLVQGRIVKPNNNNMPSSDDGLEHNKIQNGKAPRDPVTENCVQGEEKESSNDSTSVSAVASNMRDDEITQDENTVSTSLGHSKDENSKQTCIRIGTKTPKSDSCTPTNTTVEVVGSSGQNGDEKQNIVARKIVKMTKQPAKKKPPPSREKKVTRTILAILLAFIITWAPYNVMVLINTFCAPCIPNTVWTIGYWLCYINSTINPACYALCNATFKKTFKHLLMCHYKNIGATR
T3 sequence (P25105 whole entry): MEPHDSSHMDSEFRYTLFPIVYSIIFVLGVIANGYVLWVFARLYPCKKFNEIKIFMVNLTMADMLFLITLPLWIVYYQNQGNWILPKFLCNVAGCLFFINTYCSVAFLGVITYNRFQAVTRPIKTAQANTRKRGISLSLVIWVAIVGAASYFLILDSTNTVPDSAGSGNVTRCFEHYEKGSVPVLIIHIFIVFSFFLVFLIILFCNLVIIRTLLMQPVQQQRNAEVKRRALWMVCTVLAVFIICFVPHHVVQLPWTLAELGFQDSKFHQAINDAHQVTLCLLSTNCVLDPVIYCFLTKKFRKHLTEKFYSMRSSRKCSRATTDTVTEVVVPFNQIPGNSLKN

Structure (SMILES): Cc1cc(NC(=O)Nc2ccc(F)c(F)c2)n(-c2ccccc2)n1 [VU0456810, 1-(3,4-difluorophenyl)-3-(3-methyl-1-phenyl-1H-pyrazol-5-yl)urea]
- inhibition at 10 µM [1]: 13%
- inhibition at 10 µM [2]: -17%
- % Inhibition [3]: 20%
- inhibition at 10 µM [4]: 2%
- effect of pertussis toxin treatment on evoked thallium flux [5]: unable to block
